Data set [1] has as its system Bacopa monnieri. Nature of the data set: Toxicity against Bacopa monnieri assessed as shoot elongation at 50 ug/ml after 15 days by Bacopa sensor test (reference value: 0.8 cm). Type of data set: organism-based. To be noted: in vivo, 360 h.
The subject of data set [2] is PA-1. Nature of the data set: Cytotoxic activity against Homo sapiens (human) PA1 cells incubated for 4 hr followed by compound wash-out measured after doubling time by MTT assay. Type of data set: functional, cell-based. (Tetrazolium dyes change colour on reduction, which living cells bring about.)
The subject of data set [3] is Caco-2. Kind of data set: Cytotoxic activity against Homo sapiens (human) Caco2 cells by clonogenic assay. Type of data set: functional, cell-based.
For data set [4], the system named is WRL68. Kind of data set: Cytotoxic activity against Homo sapiens (human) WRL68 cells incubated for 4 hr followed by compound wash-out measured after doubling time by MTT assay. Type of data set: functional, cell-based.
In data set [5] the test system is Bacopa monnieri. Nature of the data set: Toxicity against Bacopa monnieri assessed as number of shoots at 50 ug/ml after 15 days by Bacopa sensor test (reference value: 2). It is filed as organism-based. To be noted: in vivo, 360 h.
Data set [6] concerns PA-1. Kind of data set: Cytotoxic activity against Homo sapiens (human) PA1 cells by clonogenic assay. It is filed as functional, cell-based.
Data set [7] concerns MCF7. Nature of the data set: Cytotoxic activity against Homo sapiens (human) MCF7 cells by clonogenic assay. Type of data set: functional, cell-based.
The subject of data set [8] is COLO 320. Nature of the data set: Cytotoxic activity against Homo sapiens (human) COLO320 cells by clonogenic assay. Type of data set: functional, cell-based.
For data set [9], the system named is Bacopa monnieri. Kind of data set: Toxicity against Bacopa monnieri assessed as change in leaf colour at 50 ug/ml after 15 days by Bacopa sensor test. Type of data set: organism-based. To be noted: in vivo, 360 h.
Data set [10] concerns COLO 320. Nature of the data set: Cytotoxic activity against Homo sapiens (human) COLO320 cells incubated for 4 hr followed by compound wash-out measured after doubling time by MTT assay. It is filed as functional, cell-based.
The test system of data set [11] is MCF7. Nature of the data set: Cytotoxic activity against Homo sapiens (human) MCF7 cells incubated for 4 hr followed by compound wash-out measured after doubling time by MTT assay. Type of data set: functional, cell-based.
Data set [12] deals with Caco-2. Nature of the data set: Cytotoxic activity against Homo sapiens (human) Caco2 cells incubated for 4 hr followed by compound wash-out measured after doubling time by MTT assay. It is filed as functional, cell-based.
The test system of data set [13] is Bacopa monnieri. Kind of data set: Toxicity against Bacopa monnieri assessed as number of leaves at 50 ug/ml after 15 days by Bacopa sensor test (reference value: 6). It is filed as organism-based. To be noted: in vivo, 360 h.
In data set [14] the test system is WRL68. Kind of data set: Cytotoxic activity against Homo sapiens (human) WRL68 cells by clonogenic assay. It is filed as functional, cell-based.
The test system of data set [15] is Bacopa monnieri. Nature of the data set: Toxicity against Bacopa monnieri assessed as number of roots at 50 ug/ml after 15 days by Bacopa sensor test (reference value: 2). Type of data set: organism-based. To be noted: in vivo, 360 h.
The subject of data set [16] is COLO 320. Nature of the data set: Ratio of vinblastine IC50 to compound IC50 for Homo sapiens (human) COLO320 cells by MTT assay. Type of data set: functional.
For data set [17], the system named is WRL68. Nature of the data set: Ratio of vinblastine IC50 to compound IC50 for Homo sapiens (human) WRL68 cells by MTT assay. It is filed as functional.
[18] abbreviates: Homo sapiens, PA-1, 4 h, read-out: IC50.
The mark [19] stands for this setting: Homo sapiens, WRL68, 4 h, read-out: IC50.
The mark [20] stands for this setting: Homo sapiens, COLO 320, 4 h, read-out: IC50.
Setting [21] is: Homo sapiens, MCF7, 4 h, read-out: IC50.
The mark [22] stands for this setting: Homo sapiens, Caco-2, 4 h, read-out: IC50.

Converted amounts (≈) assume the structure as drawn.

The term IC50 denotes the concentration at which inhibition is half-maximal. As for `COC(=O)C1=CO[C@@H](O[C@@H]2O[C@H](COC(=O)c3cccc([N+](=O)[O-])c3)[C@@H](OC(C)=O)[C@H](OC(C)=O)[C@H]2OC(C)=O)[C@@H]2[C@@H](C)[C@@H](OC(C)=O)C[C@H]12`, the Activity in the data set on Bacopa monnieri [1] is on record as 0.8 cm; with Bacopa monnieri [5], 2; in the data set on Bacopa monnieri [9], “Non-toxic”; in the data set with Bacopa monnieri [13], 6; in the data set on Bacopa monnieri [15], 2. The IC50 is 0.85 µg/mL (≈ 1.2 µM) in the data set with PA-1 [2] (setting [18]); 5.42 µg/mL (≈ 7.66 µM) with Caco-2 [3]; 3.2 µg/mL (≈ 4.52 µM) in the data set on WRL68 [4] (setting [19]); 2.65 µg/mL (≈ 3.74 µM) in the data set on PA-1 [6]; 3.42 µg/mL (≈ 4.83 µM) with MCF7 [7]; 8.2 µg/mL (≈ 11.6 µM) with COLO 320 [8]. Further, the IC50 in the data set on COLO 320 [10] (setting [20]) worked out at 0.44 µg/mL (≈ 0.622 µM); in the data set with MCF7 [11] (setting [21]), 1.25 µg/mL (≈ 1.77 µM); with Caco-2 [12] (setting [22]) it was 1 µg/mL (≈ 1.41 µM); in the data set on WRL68 [14] it was 6.5 µg/mL (≈ 9.19 µM).
`COC(=O)C1=CO[C@@H](O[C@@H]2O[C@H](CO)[C@@H](OC(C)=O)[C@H](OC(C)=O)[C@H]2OC(C)=O)[C@@H]2[C@@H](C)[C@@H](OC(C)=O)C[C@H]12`: the half-inhibitory concentration (IC50) entry with PA-1 [2] (pa-1), in the data set with WRL68 [4] (wrl68), in the data set on COLO 320 [10] (colo 320), in the data set with MCF7 [11] (mcf7) and with Caco-2 [12] (caco-2) was “Not Active” each time.
For `CCC(=O)OC[C@H]1O[C@@H](O[C@@H]2OC=C(C(=O)OC)[C@H]3C[C@H](OC(C)=O)[C@H](C)[C@@H]23)[C@H](OC(C)=O)[C@@H](OC(C)=O)[C@@H]1OC(C)=O`, the Activity with Bacopa monnieri [1] is 0.65 cm; in the data set on Bacopa monnieri [5] it was 2; in the data set on Bacopa monnieri [9] it was “Non-toxic”; in the data set with Bacopa monnieri [13] it was 4; in the data set with Bacopa monnieri [15], 2. Besides, the IC50 is 1.24 µg/mL (≈ 2.02 µM) with PA-1 [2] (setting [18]); 4.88 µg/mL (≈ 7.94 µM) in the data set on Caco-2 [3]; 2.65 µg/mL (≈ 4.31 µM) in the data set with WRL68 [4] (setting [19]); 2.85 µg/mL (≈ 4.64 µM) with PA-1 [6]; 4.26 µg/mL (≈ 6.93 µM) in the data set on MCF7 [7]; 4.86 µg/mL (≈ 7.91 µM) with COLO 320 [8]. The IC50 in the data set with COLO 320 [10] (setting [20]) was found to be 0.85 µg/mL (≈ 1.38 µM); in the data set on MCF7 [11] (setting [21]) it was 1.88 µg/mL (≈ 3.06 µM); in the data set on Caco-2 [12] (setting [22]) it was 2.85 µg/mL (≈ 4.64 µM); in the data set with WRL68 [14], 8.4 µg/mL (≈ 13.7 µM).
As to `CCCCCCCCCCCC(=O)OC[C@H]1O[C@@H](O[C@@H]2OC=C(C(=O)OC)[C@H]3C[C@H](OC(C)=O)[C@H](C)[C@@H]23)[C@H](OC(C)=O)[C@@H](OC(C)=O)[C@@H]1OC(C)=O`, the “Ratio IC50” value in the data set with COLO 320 [16] came to 13; with WRL68 [17], 2. The Activity in the data set on Bacopa monnieri [1] was 0 cm; in the data set with Bacopa monnieri [5], 2; with Bacopa monnieri [9], “Non-toxic”; in the data set on Bacopa monnieri [13], 6; with Bacopa monnieri [15], 3. The IC50 with PA-1 [2] (setting [18]) amounted to 0.15 µg/mL (≈ 0.202 µM); with Caco-2 [3], 1.24 µg/mL (≈ 1.67 µM); with WRL68 [4] (setting [19]) it was 0.85 µg/mL (≈ 1.15 µM); in the data set with PA-1 [6], 0.42 µg/mL (≈ 0.567 µM); in the data set on MCF7 [7], 0.75 µg/mL (≈ 1.01 µM); in the data set on COLO 320 [8], 0.24 µg/mL (≈ 0.324 µM). Further, the IC50 with COLO 320 [10] (setting [20]) was determined as 0.04 µg/mL (≈ 0.054 µM); in the data set with MCF7 [11] (setting [21]), 0.24 µg/mL (≈ 0.324 µM); with Caco-2 [12] (setting [22]) it was 0.42 µg/mL (≈ 0.567 µM); in the data set with WRL68 [14], 2.62 µg/mL (≈ 3.54 µM).
Take `CCCCCCCCCCCCCC(=O)OC[C@H]1O[C@@H](O[C@@H]2OC=C(C(=O)OC)[C@H]3C[C@H](OC(C)=O)[C@H](C)[C@@H]23)[C@H](OC(C)=O)[C@@H](OC(C)=O)[C@@H]1OC(C)=O`: the IC50 is 6.5 µg/mL (≈ 8.45 µM) in the data set on PA-1 [2] (setting [18]); 58.5 µg/mL (≈ 76.1 µM) in the data set with WRL68 [4] (setting [19]); 30 µg/mL (≈ 39 µM) with COLO 320 [10] (setting [20]); 24.6 µg/mL (≈ 32 µM) with MCF7 [11] (setting [21]); “Not Active” in the data set with Caco-2 [12] (caco-2).
In the case of `CCCCCCCCCCCCCCCC(=O)OC[C@H]1O[C@@H](O[C@@H]2OC=C(C(=O)OC)[C@H]3C[C@H](OC(C)=O)[C@H](C)[C@@H]23)[C@H](OC(C)=O)[C@@H](OC(C)=O)[C@@H]1OC(C)=O`, the IC50 result with PA-1 [2] (pa-1), in the data set on WRL68 [4] (wrl68), with COLO 320 [10] (colo 320), in the data set with MCF7 [11] (mcf7) and in the data set on Caco-2 [12] (caco-2) was “Not Active” in each case.

The values above are taken from ChEMBL document CHEMBL3045094, “A cytotoxic agent from Strychnos nux-vomica and biological evaluation of its modified analogues” (Med Chem Res, 2012).
